Test results taken from patent publication US20260166057A1, “1,3,5(10),16-ESTRATETRAEN-3-YL ACETATE FOR USE IN IMPROVING PSYCHOMOTOR OR COGNITIVE PERFORMANCE” (priority 2023, published 2026).

Assays:
[1] = adjunctive therapy for acute depressive episodes, unipolar and bipolar; cited from earlier work
[2] = at certain dosages; cited from earlier work
[3] = at night during extended wakefulness; cited from earlier work
[4] = system: US adults; details: caffeine intake; cited from earlier work
[5] = system: healthy male volunteers; test: Reaction Time Test (psychomotor performance) of the RTTET in mentally fatigued men; assay type: in vivo, human; details: relative to placebo, all three non-control tests
[6] = system: depressed patients; details: cited from earlier work
[7] = system: healthy male volunteers; test: Time Estimation Test (cognitive performance) of the RTTET in mentally fatigued men; details: midnight test, relative to placebo
[8] = system: mice; details: forced swim test in mice; imipramine, desipramine, fluoxetine, paroxetine, escitalopram, reboxetine; cited from earlier work

| SMILES | overall depression scores, remission rates and fatigue [1] | ADHD symptoms [2] | attention [2] | reaction time and cognitive performance [3] | depression symptoms measured by the PHQ-9 test [4] | number of errors ([5]; isochronous stimuli) | number of errors ([5]; stochastic stimuli) | depressive scores (antidepressant action) ([6]; chronic supplementation, 60 mg, subjects taking escitalopram) | cognitive performance ([6]; low doses, depressed patients) | Time Estimation test improvement [7] | antidepressant-like activity of six typical antidepressants [8] |
| --- | --- | --- | --- | --- | --- | --- | --- | --- | --- | --- | --- |
| NC(=O)C[S+]([O-])C(c1ccccc1)c1ccccc1 (centres unmarked) [modafinil] | improves | significantly improved | significantly improved | – | – | – | – | – | – | – | – |
| Cn1c(=O)c2c(ncn2C)n(C)c1=O [caffeine] | – | – | – | improved | reduces depression symptoms | significantly decrease | significantly decrease | produced rapid antidepressant action by reduction of depressive scores | improved | statistically significant | enhancement |
